According to patent publication US4263427A, “Monensin urethane derivatives” (priority 1979, dated 1981):
Converted amounts (≈) assume the structure as drawn. Where two headings read alike, the source gives them in different places.

Legend:
Bacillus sp. TA 27860 = assay: Minimum Inhibitory Concentration, agarwell diffusion assay (Table 6); assay type: cell-based; settings: for MIC: Bacillus
Text: (§1) (a) Lowest twofold dilution giving zone of inhibition in the agarwell
(§2) (b) NRRL collection number, all the rest ate ATCC numbers.

Bacillus megaterium 8CU = assay: as above; assay type: cell-based; settings: for MIC: Priestia megaterium, 8CU, read-out: Minimum Inhibitory Concentration, Bacillus megaterium 8CU
Text: as §1, §2

[1] = test system: Streptococcus cellulosac 3313; assay: as above; assay type: cell-based; settings: for MIC: Streptococcus, 3313, read-out: Minimum Inhibitory Concentration, Streptococcus cellulosac 3313
Text: as §1, §2

[2] = test system: Streptococcus faecium 8043; assay: as above; assay type: cell-based
Text: as §1, §2

Bacillus subtilis 583 = assay: as above; assay type: cell-based
Text: as §1, §2

[3] = test system: Paceilomyces variotl 25820; assay: as above; assay type: cell-based; settings: for MIC: read-out: Minimum Inhibitory Concentration, Paceilomyces variotl 25820
Text: as §1, §2

MycoBacterium phiel 355 = assay: as above; assay type: cell-based; settings: for MIC: Mycobacterium, 355, read-out: Minimum Inhibitory Concentration, MycoBacterium phiel 355
Text: as §1, §2

Staph. aureus 6538 = assay: as above; assay type: cell-based; settings: for MIC: Staphylococcus aureus, 6538, read-out: Minimum Inhibitory Concentration, Staph. aureus 6538
Text: as §1, §2

Bacillus sp. E 27859 = assay: as above; assay type: cell-based; settings: for MIC: Bacillus
Text: as §1, §2

Sarcina lutca 9341 = assay: as above; assay type: cell-based; settings: for MIC: Sarcina, 9341, read-out: Minimum Inhibitory Concentration, Sarcina lutca 9341
Text: as §1, §2

rumen fluid = settings: control 100
[4] = Oral antihypertensive activity: blood pressure and heart rate (Table 9); assay type: in vivo; settings: oral dose 10 mg/kg
Text: Compounds of formula I, and their pharmaceutically acceptable salts are orally active as antihypertensive agents.

Treponema hyodysenteriae = assay: Activity against Treponema hyodysenteriae (MIC, blood agar plates); assay type: cell-based; settings: 48 hours, 42° C., anaerobic
Text: Testing for activity against Treponema hyodysenteriae, a cause of swine dysentery consisted of inoculation of blood agar plates containing a series of two or fourfold dilutions of the monensin urethane derivatives with tenfold dilutions of the T. hyodysenteriae strain.

[5] = SP.TA27860, Bacillus sp. TA 27860, read-out: Minimum Inhibitory Concentration
[6] = Enterococcus faecium, 8043, Streptococcus faecium 8043, read-out: Minimum Inhibitory Concentration
[7] = Bacillus subtilis, 583, Bacillus subtilis 583 (NRRL), read-out: Minimum Inhibitory Concentration
[8] = SP.E27859, Bacillus sp. E 27859, read-out: Minimum Inhibitory Concentration

Structure (SMILES)	MIC (Bacillus sp. TA 27860; [5]) [mg/L]	MIC (Bacillus megaterium 8CU) [mg/L]	MIC [1] [mg/L]	MIC [2, 6] [mg/L]	MIC (Bacillus subtilis 583; [7]) [mg/L]	MIC [3] [mg/L]	MIC (MycoBacterium phiel 355) [mg/L]	MIC (Staph. aureus 6538) [mg/L]	MIC (Bacillus sp. E 27859; [8]) [mg/L]	MIC (Sarcina lutca 9341) [mg/L]	other results
COC(C(C)C(=O)O)C(C)C1OC2(CCC(C)(C3CCC(C)(C4OC(C5OC(O)(COC(=O)NC(C)c6ccccc6)C(C)CC5C)CC4C)O3)O2)CC(O)C1C [Monensin B, (S)-1-phenethylurethane]											Minimum Inhibitory Concentration (Bacillus sp. TA 27860; Bacillus sp. TA 27860, listed as Monensin B,(S)-1-phenethylurethane): 0.2 meg/ml; Minimum Inhibitory Concentration (Bacillus megaterium 8CU; Bacillus megaterium 8CU, listed as Monensin B,(S)-1-phenethylurethane): 0.4 meg/ml; Minimum Inhibitory Concentration ([1]; Streptococcus cellulosac 3313, listed as Monensin B,(S)-1-phenethylurethane): 6.3 meg/ml; Minimum Inhibitory Concentration ([2]; Streptococcus faecium 8043, listed as Monensin B,(S)-1-phenethylurethane): 0.2 meg/ml; Minimum Inhibitory Concentration (Bacillus subtilis 583; Bacillus subtilis 583 (NRRL)): 0.8 meg/ml; Minimum Inhibitory Concentration ([3]; Paceilomyces variotl 25820, listed as Monensin B,(S)-1-phenethylurethane): 6.3 meg/ml; Minimum Inhibitory Concentration (MycoBacterium phiel 355; MycoBacterium phiel 355): 6.3 meg/ml; Minimum Inhibitory Concentration (Staph. aureus 6538; Staph. aureus 6538, listed as Monensin B,(S)-1-phenethylurethane): 1.6 meg/ml; Minimum Inhibitory Concentration (Bacillus sp. E 27859; Bacillus sp. E 27859, listed as Monensin B,(S)-1-phenethylurethane): 0.1 meg/ml; Minimum Inhibitory Concentration (Sarcina lutca 9341; Sarcina lutca 9341): 1.6 meg/ml
CCCCNC(=O)OCC1(O)OC(C2CC(C)C(C3(CC)CCC(C4(C)CCC5(CC(O)C(C)C(C(C)C(OC)C(C)C(=O)O)O5)O4)O3)O2)C(C)CC1C (centres unmarked) [Monensin A, N-butylurethane]	0.4 (≈ 0.519 µM)	0.8 (≈ 1.04 µM)	3.1 (≈ 4.03 µM)	0.2 (≈ 0.26 µM)	0.4 (≈ 0.519 µM)	6.3 (≈ 8.18 µM)	6.3 (≈ 8.18 µM)	1.6 (≈ 2.08 µM)	0.2 (≈ 0.26 µM)	1.6 (≈ 2.08 µM)	
CCC1(C2OC(C3OC(O)(COC(=O)Nc4ccc(OC)cc4)C(C)CC3C)CC2C)CCC(C2(C)CCC3(CC(O)C(C)C(C(C)C(OC)C(C)C(=O)O)O3)O2)O1 (centres unmarked) [Monensin A,4-methoxyphenylurethane]		0.8 (≈ 0.976 µM)	6.3 (≈ 7.68 µM)				1.6 (≈ 1.95 µM)	1.6 (≈ 1.95 µM)		1.6 (≈ 1.95 µM)	MIC (Bacillus sp. TA 27860; SP.TA27860, read-out: Minimum Inhibitory Concentration, Bacillus sp. TA 27860): 6.3 mg/L (≈ 7.68 µM); MIC ([2]; Enterococcus faecium, 8043, read-out: Minimum Inhibitory Concentration, Streptococcus faecium 8043): 0.4 mg/L (≈ 0.488 µM); MIC (Bacillus subtilis 583; Bacillus subtilis, 583, read-out: Minimum Inhibitory Concentration, Bacillus subtilis 583 (NRRL)): 0.8 mg/L (≈ 0.976 µM); MIC (Bacillus sp. E 27859; SP.E27859, read-out: Minimum Inhibitory Concentration, Bacillus sp. E 27859): 0.1 mg/L (≈ 0.122 µM)
CCC1(C2OC(C3OC(O)(COC(=O)Nc4ccc(Oc5ccccc5)cc4)C(C)CC3C)CC2C)CCC(C2(C)CCC3(CC(O)C(C)C(C(C)C(OC)C(C)C(=O)O)O3)O2)O1 (centres unmarked) [Monensin A, 4-phenoxyphenylurethane]	0.2 (≈ 0.227 µM)	0.4 (≈ 0.453 µM)	0.8 (≈ 0.907 µM)	0.1 (≈ 0.113 µM)	0.4 (≈ 0.453 µM)	0.8 (≈ 0.907 µM)	1.6 (≈ 1.81 µM)	0.4 (≈ 0.453 µM)	0.4 (≈ 0.453 µM)	0.4 (≈ 0.453 µM)	
CCC1(C2OC(C3OC(O)(COC(=O)NC)C(C)CC3C)CC2C)CCC(C2(C)CCC3(CC(O)C(C)C(C(C)C(OC)C(C)C(=O)O)O3)O2)O1 (centres unmarked) [Monensin A, n-methylurethane]	12.5 (≈ 17.2 µM)	6.3 (≈ 8.65 µM)		1.6 (≈ 2.2 µM)	1.6 (≈ 2.2 µM)			25 (≈ 34.3 µM)	6.3 (≈ 8.65 µM)	25 (≈ 34.3 µM)	
CCC1(C2OC(C3OC(O)(COC(=O)Nc4ccc(C(C)=O)cc4)C(C)CC3C)CC2C)CCC(C2(C)CCC3(CC(O)C(C)C(C(C)C(OC)C(C)C(=O)O)O3)O2)O1 (centres unmarked) [Monensin A,4-(methylcarbonyl) phenylurethane]	0.8 (≈ 0.961 µM)	1.6 (≈ 1.92 µM)	3.1 (≈ 3.73 µM)	0.8 (≈ 0.961 µM)	1.6 (≈ 1.92 µM)	6.3 (≈ 7.57 µM)	6.3 (≈ 7.57 µM)	1.6 (≈ 1.92 µM)	0.2 (≈ 0.24 µM)	1.6 (≈ 1.92 µM)	
COC(C(C)C(=O)O)C(C)C1OC2(CCC(C)(C3CCC(C)(C4OC(C5OC(O)(COC(=O)NCCc6ccccc6)C(C)CC5C)CC4C)O3)O2)CC(O)C1C (centres unmarked) [Monensin B, 2-phenethylurethane]	3.1 (≈ 3.86 µM)	3.1 (≈ 3.86 µM)	12.5 (≈ 15.5 µM)	0.8 (≈ 0.995 µM)	3.1 (≈ 3.86 µM)		25 (≈ 31.1 µM)	6.3 (≈ 7.84 µM)	1.6 (≈ 1.99 µM)	3.1 (≈ 3.86 µM)	Rate of Gas Production, Percent Production of Control Fermentations (rumen fluid; 10 ppm): 93%; Total VFA, Percent Production of Control Fermentations (rumen fluid; 10 ppm): 157.8%; Rate of Gas Production, Percent Production of Control Fermentations (rumen fluid; 50 ppm): 92%; Total VFA, Percent Production of Control Fermentations (rumen fluid; 50 ppm): 149.1%; Day of Maximum Change, Blood Pressure [4]: 2 days; Day of Maximum Change, Heart Rate [4]: 3 days; Maximum Change (%), Blood Pressure [4]: 13%; Maximum Change (%), Heart Rate [4]: 14%; Mean Blood Pressure at time of maximum effect ([4]; at time of maximum effect): 189 mm Hg; Mean Blood Pressure before treatment ([4]; before treatment): 216 mm Hg; MIC (Treponema hyodysenteriae; 2-phenethylurethane (natural product)): 0.4-2.0 meg/ml; MIC (Treponema hyodysenteriae; 2-phenethylurethane (synthetic product)): 2.0 meg/ml
